The series can be described thus: Solubility of ganaxolone using water soluble beta cyclodextrins. Type of series: physicochemical. The note with it: water soluble beta cyclodextrins (beta-sulfobutyl-cyclodextrin, 2-hydroxypropylbetacyclodextrin). An excerpt:
Ganaxolone formulations suitable for intramuscular, subcutaneous, or intravenous injection may comprise physiologically acceptable sterile aqueous or non-aqueous solutions, dispersions, suspensions or emulsions, and sterile powders for reconstitution into sterile injectable solutions or dispersions. Examples of suitable aqueous and non-aqueous carriers, diluents, solvents, or vehicles including water, ethanol, polyols (propylene glycol, polyethylene-glycol, glycerol, cremophor and the like), suitable mixtures thereof, vegetable oils (such as olive oil) and injectable organic esters such as ethyl oleate. Additionally, Ganaxolone can be dissolved at concentrations of >1 mg/ml using water soluble beta cyclodextrins (e.g. beta-sulfobutyl-cyclodextrin and 2-hydroxypropylbetacyclodextrin. Proper fluidity can be maintained, for example, by the use of a coating such as lecithin, by the maintenance of the required particle size in the case of dispersions, and by the use of surfactants. Ganaxolone formulations suitable for subcutaneous injection may also contain additives such as preserving, wetting, emulsifying, and dispensing agents. Prevention of the growth of microorganisms can be ensured by various antibacterial and antifungal agents, such as parabens, benzoic acid, benzyl alcohol, chlorobutanol, phenol, sorbic acid, and the like. […]

`CC(=O)[C@H]1CC[C@H]2[C@@H]3CC[C@H]4C[C@](C)(O)CC[C@]4(C)[C@H]3CC[C@]12C` [Ganaxolone, 3α-hydroxy-3β-methyl-5α-pregnan-20-one]: the concentration dissolved was > 1000 µg/mL.

The values above are taken from patent publication US9029355B2, “Solid ganaxolone compositions and methods for the making and use thereof” (Marinus Pharmaceuticals, priority 2005, dated 2015).
